Source: patent publication US5763435A, “Sulfate conjugates of ursodeoxycholic acid, and their beneficial use in inflammatory disorders” (priority 1995, dated 1998)
Entries after “also recorded” stand apart in the source; their conditions may differ.

Legend:
[1] = system: Principal Bile Acids in Liver; assay: Bile acid composition of liver tissue after oral administration (GC-MS); format: in vivo, Sprague-Dawley rats
Method: Male Sprague-Dawley rats (Harlan Sprague-Dawley, Inc., Indianapolis, Ind.), weighing 210-290 g, were maintained on a 12-hour light-dark cycle and fed standard laboratory chow ad libitum for 3 days. The animals were then transferred to metabolic cages in which they were housed individually and fed the same diet. UDCA, UDCA 3-sulfate, UDCA 7-sulfate, and UDCA 3,7-disulfate were administered by gavage at a dose of 250 mg/day for 4 consecutive days. Each group comprised 3-6 rats. Body weights of the animals were measured each day. On day 5, the animals were killed by exsanguination under ether anesthesia. Plasma was collected and frozen at -20° C. The liver was removed, rinsed in normal saline, and flash-frozen in liquid nitrogen. Urine and feces were collected every 24 hours and frozen at -20° C. All animals received humane care in compliance with the "Guide for the Care and Use of Laboratory Animals" prepared by the National Academy of Sciences (National Institutes of Health publication no. 86-23, revised in 1985).
Samples of liver (100 mg) were ground to a fine paste, and bile acids were extracted by reflux and passage through a column of Lipidex 1000 as described above for intestinal contents and feces. Group separation of bile acids, according to their mode of conjugation was achieved by lipophilic anion-exchange chromatography. Extracts from each animal were pooled, and bile acids and their conjugates were separated using Lipidex-DEAP and stepwise elution of the gel bed with the following buffers: 0.1 mol/L acetic acid in 72% ethanol (unconjugated bile acids); 0.3 mol/L acetic acid in 72% ethanol, pH 5.0 (glycine conjugates); 0.15 mol/L acetic acid in 72% ethanol, pH 6.5 (taurine conjugates); and 0.3 mol/L acetic acid in 72% ethanol, pH 9.6 (sulfate conjugates). After evaporation of the buffers, sulfated bile acids were solvolyzed, whereas amidated conjugates were hydrolyzed with 50 U of cholylglycine hydrolase (Sigma Chemical Co.) in 2.5 mL of 0.2 mol/L phosphate buffer, pH 5.6, at 37° C. overnight. The resulting unconjugated bile acids were isolated on Lipidex-DEAP, and the methyl ester-trimethylsilyl ether derivatives were prepared as described above.
GC-MS analysis was performed using a Finnigan 4635 mass spectrometer (Finnigan Inc., San Jose, Calif.) that housed an identical gas chromatography column operated under the same conditions. Electron ionization (70 eV) mass spectra were recorded over the mass range of 50-800 daltons by repetitive scanning of the eluting components. Identification of bile acids was made on the basis of the gas chromatography retention index relative to a homologous series of n-alkanes, referred to as the methylene unit value, and the mass spectrum compared with authentic standards. Quantification of bile acids was achieved using gas chromatography by comparing the peak height response of the individual bile acids with the peak height response obtained from the internal standard.
Data are expressed as mean±SEM or as mean values of all animals when extracts were pooled before analysis. Results from different groups were compared using paired and unpaired two-tailed Student's t-test. P values of <0.05 were considered statistically significant.

[2] = Hepatic biotransformation of infused bile acid (negative ion FAB-MS, conjugate separation); format: in vivo, Sprague-Dawley rats; settings: i.v. infusion
Method: Adult male Sprague-Dawley rats (body weight 200-230 g) were anesthetized by an intraperitoneal injection of pentobarbital (Nembutal, 7.5 mg/100 g body weight), and maintained under sedation by additional doses. The right jugular vein and the common bile duct were cannulated using PE-50 polyethylene tubing (Clay-Adams, Parsippany, N.J.). Body temperature was maintained throughout the experiment at 37° C. using a rectal probe and a thermostatically controlled heating pad (Harvard Apparatus Co., Inc., Millis, Mass.). Saline was infused at a rate of 1.0 ml/h using a Harvard pump (Harvard Apparatus Co., Inc.) into the jugular vein for a control period of 2h. After collecting two 10 minute bile samples for base-line analysis, the bile acids were individually infused intravenously (i.v.) for 30 minutes in stepwise increasing doses (0.5, 1.0, and 2.0 μmol/min/100 g body weight). Bile acid solutions were prepared in 3% human albumin in 0.45% saline. Six animals were used for each experiment and bile was collected every 10 minutes into preweighed tubes. At the end of the experiment, blood was obtained by cardiac puncture, and urine was obtained by aspiration of the bladder. All biological specimens were stored at -20° C. This animal study protocol (#1 B 10044) was approved by the Bioethics committee of the Children's Hospital Medical Center (Cincinnati, Ohio).
Negative ion fast atom bombardment-mass spectrometry (FAB-MS) spectra of bile samples, urine and synthetic compounds were obtained after placing the equivalent of approximately 1 μl of the original bile extract, 10 μl-50 μl of the urine extract and jig quantities of synthetic bile acids dissolved in methanol onto a small drop of a glycerol matrix spotted on a copper target of the FAB probe. This probe was introduced directly into the ion source of the mass spectrometer and a beam of fast atoms of either xenon generated with a saddle field atom gun (ion Tech, Teddington, Middlesex, UK) operated at 8 kV and 20 μA, or cesium generated from cesium iodine (35 kV), was fired at the target containing the sample. Negative ion spectra were obtained over the mass range of 50-1000 Da/e.
For the determination of hepatic biotransformation of the infused bile acid, bile collections from the six animal were pooled and biliary bile acids were determined by GC-MS after extraction, solvolysis, hydrolysis, and derivatization. Quantification of bile acids was achieved using GC, by comparing the peak height response of the individual bile acid with the peak height response obtained from the internal standard, nordeoxycholic acid added to the initial sample of bile. Identification of a bile acid was made on the basis of the retention index relative to a homologous series of n-alkanes, referred to as the methylene unit value (MU) and the fragmentation pattern of the mass spectrum was compared with authentic standards. A list of over 100 mass spectra of authentic bile acid standards and retention indices was recently compiled as a reference source (Lawson, A. M., et al, Mass spectrometry of bile acids, The Bile Acids, Vol. 4, Methods and Applications, pp. 167-267 (1988)).
In the case of the animals infused with UDCA-3S, bile was collected during the final period of bile acid infusion ([…]). Bile acids were solvolyzed and separated into groups based on their mode of conjugation using the lipophilic anion exchange gel, diethylaminohydroxypropyl Sephadex LH-20; Packard Instruments, Groningen, The Netherlands). Bile acid composition was determined in each fraction by GC-MS after hydrolysis and preparation of the Me-TMS ethers.

Row | SMILES | Chenodeoxycholic acid concentration in liver ([1]; oral gavage 250 mg/day, 4 days) | Chenodeoxycholic acid percent of hepatic bile acids ([1]; oral gavage 250 mg/day, 4 days) | Cholic acid concentration in liver ([1]; oral gavage 250 mg/day, 4 days) | Cholic acid percent of hepatic bile acids ([1]; oral gavage 250 mg/day, 4 days) | Deoxycholic acid concentration in liver ([1]; oral gavage 250 mg/day, 4 days) | Deoxycholic acid percent of hepatic bile acids ([1]; oral gavage 250 mg/day, 4 days) | Lithocholic acid concentration in liver ([1]; oral gavage 250 mg/day, 4 days) | Lithocholic acid percent of hepatic bile acids ([1]; oral gavage 250 mg/day, 4 days) | Total bile acid concentration in liver ([1]; oral gavage 250 mg/day, 4 days) | UDCA percent of hepatic bile acids ([1]; oral gavage 250 mg/day, 4 days) | Δ^22-UDCA concentration in liver ([1]; oral gavage 250 mg/day, 4 days) | Δ^22-UDCA percent of hepatic bile acids ([1]; oral gavage 250 mg/day, 4 days) | Δ^22-β-Muricholic acid concentration in liver ([1]; oral gavage 250 mg/day, 4 days) | Δ^22-β-Muricholic acid percent of hepatic bile acids ([1]; oral gavage 250 mg/day, 4 days) | Δ^22-ω-Muricholic acid concentration in liver ([1]; oral gavage 250 mg/day, 4 days) | Δ^22-ω-Muricholic acid percent of hepatic bile acids ([1]; oral gavage 250 mg/day, 4 days) | α-Muricholic acid concentration in liver ([1]; oral gavage 250 mg/day, 4 days) | α-Muricholic acid percent of hepatic bile acids ([1]; oral gavage 250 mg/day, 4 days) | β-Muricholic acid concentration in liver ([1]; oral gavage 250 mg/day, 4 days) | β-Muricholic acid percent of hepatic bile acids ([1]; oral gavage 250 mg/day, 4 days) | also measured
1 | C[C@H](CCC(=O)O)[C@H]1CC[C@H]2[C@@H]3[C@@H](OS(=O)(=O)O)C[C@@H]4C[C@H](O)CC[C@]4(C)[C@H]3CC[C@]12C [UDCA-7S, ursodeoxycholic acid 7-sulfate] | 6.4 nmol/g | 1.9% | 186.1 nmol/g | 56.0% | 14.9 nmol/g | 4.5% | 3.2 nmol/g | 1.0% | 332.3 nmol/g | 1.8% | 8.7 nmol/g | 2.6% | 59.8 nmol/g | 18.0% | 6.6 nmol/g | 2.0% | 0.4 nmol/g | 0.1% | 36.1 nmol/g | 10.8% | ω-Muricholic acid concentration in liver ([1]; oral gavage 250 mg/day, 4 days): 4.0 nmol/g; ω-Muricholic acid percent of hepatic bile acids ([1]; oral gavage 250 mg/day, 4 days): 1.2%; Hepatic UDCA concentration change (in words) ([1]; oral, vs control): low compared with the control animals; Hepatic biotransformation / form secreted in bile (in words) [2]: No other significant ions were present to indicate further metabolic transformation; also recorded: not amidated with taurine or glycine; Hepatic biotransformation / form secreted in bile (in words) ([2]; listed as UDCA-7-sulfate): secreted into bile unchanged
2 | C[C@H](CCC(=O)O)[C@H]1CC[C@H]2[C@@H]3[C@@H](OS(=O)(=O)O)C[C@@H]4C[C@H](OS(=O)(=O)O)CC[C@]4(C)[C@H]3CC[C@]12C [UDCA-DS, ursodeoxycholic acid 3,7-disulfate] | 0.7 nmol/g | 0.2% | 163.2 nmol/g | 57.7% | 17.3 nmol/g | 6.1% | 2.2 nmol/g | 0.8% | 282.7 nmol/g | 1.7% | 5.8 nmol/g | 2.0% | 23.0 nmol/g | 8.1% | 4.0 nmol/g | 1.4% | 6.5 nmol/g | 2.3% | 50.1 nmol/g | 17.7% | ω-Muricholic acid concentration in liver ([1]; oral gavage 250 mg/day, 4 days): 5.0 nmol/g; ω-Muricholic acid percent of hepatic bile acids ([1]; oral gavage 250 mg/day, 4 days): 1.8%; Hepatic UDCA concentration change (in words) ([1]; oral, vs control): low compared with the control animals; Hepatic biotransformation / form secreted in bile (in words) [2]: No other ions were present to suggest further metabolic transformation; also recorded: not amidated with taurine or glycine; Hepatic biotransformation / form secreted in bile (in words) ([2]; listed as UDCA-disulfate): secreted into bile unchanged
3 | C[C@H](CCC(=O)O)[C@H]1CC[C@H]2[C@@H]3[C@@H](O)C[C@@H]4C[C@H](O)CC[C@]4(C)[C@H]3CC[C@]12C [UDCA, 3 alpha, 7 beta-dihydroxy-5 beta-cholan-24oic acid, reference compound] | 12.4 nmol/g | 3.7% | 42.3 nmol/g | 12.7% | 22.5 nmol/g | 6.8% | 8.0 nmol/g | 2.4% | 331.8 nmol/g | 30.0% | 37.4 nmol/g | 11.3% | 20.9 nmol/g | 6.3% | 4.8 nmol/g | 1.4% | 16.1 nmol/g | 4.8% | 60.6 nmol/g | 18.3% | Conjugation of UDCA in liver tissue ([1]; oral): biotransformed by conjugation, mainly with taurine; also recorded: predominantly conjugated by amidation; Fold decrease of liver tissue cholic acid concentration ([1]; oral): ~4 fold; UDCA concentration in liver ([1]; oral gavage 250 mg/day, 4 days): 99.6 nmol/g; ω-Muricholic acid concentration in liver ([1]; oral gavage 250 mg/day, 4 days): 6.3 nmol/g; ω-Muricholic acid percent of hepatic bile acids ([1]; oral gavage 250 mg/day, 4 days): 1.9%; Hepatic UDCA concentration change (in words) ([1]; oral, vs control): increased concentrations and proportions of liver tissue UDCA; also recorded: increased markedly; Hepatic lithocholic acid change (in words) ([1]; oral, vs control): increased hepatic lithocholic acid concentration; Hepatic biotransformation / form secreted in bile (in words) [2]: almost exclusively conjugated with taurine and glycine; also recorded: mainly conjugated with taurine, and to a lesser extent was converted to glycine, sulfate and flucuronide conjugates
